From patent US8937064B2, “Pyrazolo[1,5-a]pyrimidines useful as JAK2 inhibitors” (Vertex Pharmaceuticals Incorporated, priority 2007, dated 2015)

Experiments:
JAK3 = target: T1, JAK3 (Homo sapiens, UniProt P52333); assay: JAK3 Inhibition Assay; type: biochemical; details: 1 nM JAK3, 1 μM poly(Glu)4Tyr, 5 μM ATP, 25° C., 33P incorporation
T1 sequence (P52333 1-1124): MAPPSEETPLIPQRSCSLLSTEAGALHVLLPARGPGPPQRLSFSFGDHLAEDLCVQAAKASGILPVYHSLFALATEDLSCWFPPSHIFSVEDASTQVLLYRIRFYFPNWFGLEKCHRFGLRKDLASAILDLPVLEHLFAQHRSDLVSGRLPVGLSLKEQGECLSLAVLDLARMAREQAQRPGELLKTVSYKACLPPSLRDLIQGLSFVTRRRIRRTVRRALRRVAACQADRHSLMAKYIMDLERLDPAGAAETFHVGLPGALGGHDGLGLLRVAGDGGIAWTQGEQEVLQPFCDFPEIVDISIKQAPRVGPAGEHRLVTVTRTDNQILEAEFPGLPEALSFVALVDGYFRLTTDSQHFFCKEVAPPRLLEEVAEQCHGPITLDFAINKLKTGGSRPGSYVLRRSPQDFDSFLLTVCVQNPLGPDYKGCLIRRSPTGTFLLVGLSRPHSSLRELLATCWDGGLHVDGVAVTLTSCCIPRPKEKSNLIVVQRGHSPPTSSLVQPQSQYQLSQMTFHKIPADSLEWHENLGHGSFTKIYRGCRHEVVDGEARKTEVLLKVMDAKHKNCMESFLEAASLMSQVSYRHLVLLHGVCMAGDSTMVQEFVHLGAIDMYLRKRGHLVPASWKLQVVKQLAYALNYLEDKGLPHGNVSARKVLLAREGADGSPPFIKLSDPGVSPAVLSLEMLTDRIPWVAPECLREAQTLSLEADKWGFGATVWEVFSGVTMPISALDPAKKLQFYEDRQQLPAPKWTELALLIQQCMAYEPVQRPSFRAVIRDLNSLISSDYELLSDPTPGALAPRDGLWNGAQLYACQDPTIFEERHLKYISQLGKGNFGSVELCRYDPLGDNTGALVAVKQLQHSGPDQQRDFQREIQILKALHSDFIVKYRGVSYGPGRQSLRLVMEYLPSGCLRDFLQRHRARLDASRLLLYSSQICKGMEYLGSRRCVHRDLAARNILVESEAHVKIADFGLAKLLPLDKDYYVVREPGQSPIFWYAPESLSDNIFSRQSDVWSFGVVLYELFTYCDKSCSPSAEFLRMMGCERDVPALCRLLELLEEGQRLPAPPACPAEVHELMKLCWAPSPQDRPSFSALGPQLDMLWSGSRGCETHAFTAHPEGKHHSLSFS

JAK-2 enzyme = JAK-2 enzyme (Homo sapiens, UniProt O60674); assay: JAK2 Inhibition Assay
Chain of JAK-2 enzyme (O60674 whole entry): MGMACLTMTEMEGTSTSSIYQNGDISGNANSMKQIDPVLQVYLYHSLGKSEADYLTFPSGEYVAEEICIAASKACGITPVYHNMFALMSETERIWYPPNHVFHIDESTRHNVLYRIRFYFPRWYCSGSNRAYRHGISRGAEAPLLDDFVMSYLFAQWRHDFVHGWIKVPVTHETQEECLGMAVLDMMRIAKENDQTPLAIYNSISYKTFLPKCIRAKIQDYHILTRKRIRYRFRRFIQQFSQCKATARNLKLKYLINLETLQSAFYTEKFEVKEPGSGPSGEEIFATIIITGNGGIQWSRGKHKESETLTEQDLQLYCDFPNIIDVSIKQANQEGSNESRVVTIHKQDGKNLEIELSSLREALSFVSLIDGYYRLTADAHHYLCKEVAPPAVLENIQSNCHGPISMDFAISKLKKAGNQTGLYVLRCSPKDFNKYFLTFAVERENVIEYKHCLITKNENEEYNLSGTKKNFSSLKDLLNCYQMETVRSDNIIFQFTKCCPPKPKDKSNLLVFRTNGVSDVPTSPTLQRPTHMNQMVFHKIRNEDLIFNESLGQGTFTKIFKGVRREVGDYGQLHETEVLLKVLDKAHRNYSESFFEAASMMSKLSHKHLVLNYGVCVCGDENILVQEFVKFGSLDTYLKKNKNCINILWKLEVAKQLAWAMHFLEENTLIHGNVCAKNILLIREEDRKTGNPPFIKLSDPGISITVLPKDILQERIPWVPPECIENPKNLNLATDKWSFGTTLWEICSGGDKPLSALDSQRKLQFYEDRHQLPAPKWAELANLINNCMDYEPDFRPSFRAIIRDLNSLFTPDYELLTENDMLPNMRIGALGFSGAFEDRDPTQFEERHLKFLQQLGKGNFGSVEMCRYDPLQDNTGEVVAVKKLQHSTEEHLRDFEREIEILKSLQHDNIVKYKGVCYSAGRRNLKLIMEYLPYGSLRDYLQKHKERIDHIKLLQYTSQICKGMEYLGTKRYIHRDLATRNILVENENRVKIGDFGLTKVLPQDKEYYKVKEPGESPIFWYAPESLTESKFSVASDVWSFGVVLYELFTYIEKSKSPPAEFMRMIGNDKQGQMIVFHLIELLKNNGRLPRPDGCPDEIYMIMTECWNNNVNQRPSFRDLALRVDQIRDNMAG
Experimental: Reactions were carried out in a kinase buffer containing 100 mM HEPES (pH 7.4), 1 mM DTT, 10 mM MgCl2, 25 mM NaCl, and 0.01% BSA. Substrate concentrations in the assay were 5 μM ATP (200 uCi/μmole ATP) and 1 μM poly(Glu)4Tyr. Reactions were carried out at 25° C. and 1 nM JAK3.
To each well of a 96 well polycarbonate plate was added 1.5 μl of a candidate JAK3 inhibitor along with 50 μl of kinase buffer containing 2 μM poly(Glu)4Tyr and 10 μM ATP. This was then mixed and 50 μl of kinase buffer containing 2 nM JAK3 enzyme was added to start the reaction. After 20 minutes at room temperature (25° C.), the reaction was stopped with 50 μl of 20% trichloroacetic acid (TCA) that also contained 0.4 mM ATP. The entire contents of each well were then transferred to a 96 well glass fiber filter plate using a TomTek Cell Harvester. After washing, 60 μl of scintillation fluid was added and ^33P incorporation detected on a Perkin Elmer TopCount.

Ki (JAK3) [nM]	Ki (JAK-2 enzyme) [nM]	Structure (SMILES)
10 to 100	< 10	C[C@H](Nc1cc(-c2c(N)nn3cccnc23)nc(OCC2COC(C)(C)O2)n1)c1ccc(F)cc1 (stereo partly drawn) [Compound 168]
10 to 100	< 10	C=CCOc1nc(N[C@@H](C)c2ccc(F)cc2)cc(-c2c(N)nn3cccnc23)n1 [Compound 169]
10 to 100	< 10	C=CCCOc1nc(N[C@@H](C)c2ccc(F)cc2)cc(-c2c(N)nn3cccnc23)n1 [Compound 170]
10 to 100	10 to 100	C[C@H](Nc1cc(-c2c(N)nn3cccnc23)nc(OCC2CCCN(C)C2)n1)c1ccc(F)cc1 (stereo partly drawn) [Compound 171]
10 to 100	< 10	CSCCCOc1nc(N[C@@H](C)c2ccc(F)cc2)cc(-c2c(N)nn3cccnc23)n1 [Compound 172]
10 to 100	< 10	CSCCOc1nc(N[C@@H](C)c2ccc(F)cc2)cc(-c2c(N)nn3cccnc23)n1 [Compound 173]
100 to 500	10 to 100	C=COCCCCOc1nc(N[C@@H](C)c2ccc(F)cc2)cc(-c2c(N)nn3cccnc23)n1 [Compound 174]
100 to 500	< 10	C=C(C)COc1nc(N[C@@H](C)c2ccc(F)cc2)cc(-c2c(N)nn3cccnc23)n1 [Compound 175]
100 to 500	10 to 100	C[C@H](Nc1cc(-c2c(N)nn3cccnc23)nc(OCC2CCCC2)n1)c1ccc(F)cc1 [Compound 176]
500 to 5000	100 to 500	C[C@H](Nc1cc(-c2c(N)nn3cccnc23)nc(OCCCC2CCCC2)n1)c1ccc(F)cc1 [Compound 177]
10 to 100	< 10	COC(C)(C)CCOc1nc(N[C@@H](C)c2ccc(F)cc2)cc(-c2c(N)nn3cccnc23)n1 [Compound 178]
500 to 5000	10 to 100	CCC#CC(C)Oc1nc(N[C@@H](C)c2ccc(F)cc2)cc(-c2c(N)nn3cccnc23)n1 (stereo partly drawn) [Compound 179]
100 to 500	< 10	C#CC(CC)Oc1nc(N[C@@H](C)c2ccc(F)cc2)cc(-c2c(N)nn3cccnc23)n1 (stereo partly drawn) [Compound 180]
100 to 500	10 to 100	CC#CC(C)Oc1nc(N[C@@H](C)c2ccc(F)cc2)cc(-c2c(N)nn3cccnc23)n1 (stereo partly drawn) [Compound 181]
100 to 500	10 to 100	C=CCCCOc1nc(N[C@@H](C)c2ccc(F)cc2)cc(-c2c(N)nn3cccnc23)n1 [Compound 182]
10 to 100	< 10	C#CCCCOc1nc(N[C@@H](C)c2ccc(F)cc2)cc(-c2c(N)nn3cccnc23)n1 [Compound 183]
100 to 500	< 10	COCCC(=O)Nc1nc(N[C@@H](C)c2ccc(F)cc2F)cc(-c2cnn3cccnc23)n1 [Compound 184]
100 to 500	< 10	C[C@H](Nc1cc(-c2cnn3cccnc23)nc(NC(=O)CCN2CCCC2=O)n1)c1ccc(F)cc1F [Compound 185]
100 to 500	< 10	C[C@H](Nc1cc(-c2cnn3cccnc23)nc(NC(=O)CN2CCOCC2)n1)c1ccc(F)cc1F [Compound 186]
10 to 100	< 10	COCC(=O)Nc1nc(N[C@@H](C)c2ccc(F)cc2F)cc(-c2cnn3cccnc23)n1 [Compound 187]
100 to 500	< 10	CCC(=O)Nc1nc(N[C@@H](C)c2ccc(F)cc2F)cc(-c2cnn3cccnc23)n1 [Compound 188]
100 to 500	< 10	C[C@H](Nc1cc(-c2c(N)nn3cccnc23)nc(N2CC[C@@H](F)C2)n1)c1ccc(F)cc1 [Compound 189]
10 to 100	< 10	C[C@H](Nc1cc(-c2c(N)nn3cccnc23)nc(N2CCC(N(C)C)C2)n1)c1ccc(F)cc1 (stereo partly drawn) [Compound 190]
100 to 500	10 to 100	C[C@H](Nc1cc(-c2c(N)nn3cccnc23)nc(N2CC[C@H](F)C2)n1)c1ccc(F)cc1 [Compound 191]
